Results on 19 molecules are retold here after US7446199B2, “Compositions useful as inhibitors of protein kinases” (Vertex Pharmaceuticals Incorporated, priority 2003, dated 2008).

SMILES strings stand for the structures.

By Ki is commonly meant a dissociation constant, usually derived from enzyme kinetics or from competition with a known ligand.

Format in all cases: biochemical
In one assay the target is GSK-3β, (AA 1-420) (Homo sapiens, UniProt P49841). Briefly: GSK-3 inhibition assay, coupled enzyme system. Particulars: 20 μM ATP, 300 μM peptide, 20 nM GSK-3b, 30° C.; read-out: Ki values (GSK3). The essentials:
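Pyruvate kinase/lactate dehydrogenase-coupled NADH assay with 20 nM enzyme, 20 μM ATP and 300 μM peptide in HEPES pH 7.5, 1.5% DMSO, 30° C. Compound (0.002–30 μM, 12-point) preincubated 10 min before ATP start; rates over 10 min gave Ki.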

The target of a further assay is KDR (Homo sapiens, UniProt P35968). Briefly: KDR enzyme assay, coupled enzyme assay. Particulars: 300 μM ATP, 10 μM poly E4Y, 30 nM KDR, 37° C. The essentials: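 Coupled enzyme (PK/LDH, NADH) assay with 30 nM KDR in 200 mM HEPES 7.5, 10 mM MgCl2, 25 mM NaCl, 1 mM DTT, 1.5% DMSO; 300 μM ATP, 10 μM poly E4Y. Compound at 30 μM final, preincubated ~10 min at 37 °C before ATP start; rates read over 5 min at 37 °C.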

The next assay deals with c-Met (Homo sapiens, UniProt P08581). As to the kind of experiment: Ki determination for the inhibition of c-Met, coupled enzyme system. The settings on record: 200 μM ATP, 10 μM polyGluTyr, 80 nM c-Met, 30° C. Summed up: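 Coupled pyruvate kinase/lactate dehydrogenase NADH assay with 80 nM c-Met, 200 μM ATP, 10 μM polyGluTyr in pH 7.5 HEPES, 1.5% DMSO at 30° C. Compound (0.006–12.5 μM final, 12-point) preincubated 10 min; ATP started reaction, rates read over 10 min; Ki derived from rate versus inhibitor concentration.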
c-Met, sequence (P08581 25-1390): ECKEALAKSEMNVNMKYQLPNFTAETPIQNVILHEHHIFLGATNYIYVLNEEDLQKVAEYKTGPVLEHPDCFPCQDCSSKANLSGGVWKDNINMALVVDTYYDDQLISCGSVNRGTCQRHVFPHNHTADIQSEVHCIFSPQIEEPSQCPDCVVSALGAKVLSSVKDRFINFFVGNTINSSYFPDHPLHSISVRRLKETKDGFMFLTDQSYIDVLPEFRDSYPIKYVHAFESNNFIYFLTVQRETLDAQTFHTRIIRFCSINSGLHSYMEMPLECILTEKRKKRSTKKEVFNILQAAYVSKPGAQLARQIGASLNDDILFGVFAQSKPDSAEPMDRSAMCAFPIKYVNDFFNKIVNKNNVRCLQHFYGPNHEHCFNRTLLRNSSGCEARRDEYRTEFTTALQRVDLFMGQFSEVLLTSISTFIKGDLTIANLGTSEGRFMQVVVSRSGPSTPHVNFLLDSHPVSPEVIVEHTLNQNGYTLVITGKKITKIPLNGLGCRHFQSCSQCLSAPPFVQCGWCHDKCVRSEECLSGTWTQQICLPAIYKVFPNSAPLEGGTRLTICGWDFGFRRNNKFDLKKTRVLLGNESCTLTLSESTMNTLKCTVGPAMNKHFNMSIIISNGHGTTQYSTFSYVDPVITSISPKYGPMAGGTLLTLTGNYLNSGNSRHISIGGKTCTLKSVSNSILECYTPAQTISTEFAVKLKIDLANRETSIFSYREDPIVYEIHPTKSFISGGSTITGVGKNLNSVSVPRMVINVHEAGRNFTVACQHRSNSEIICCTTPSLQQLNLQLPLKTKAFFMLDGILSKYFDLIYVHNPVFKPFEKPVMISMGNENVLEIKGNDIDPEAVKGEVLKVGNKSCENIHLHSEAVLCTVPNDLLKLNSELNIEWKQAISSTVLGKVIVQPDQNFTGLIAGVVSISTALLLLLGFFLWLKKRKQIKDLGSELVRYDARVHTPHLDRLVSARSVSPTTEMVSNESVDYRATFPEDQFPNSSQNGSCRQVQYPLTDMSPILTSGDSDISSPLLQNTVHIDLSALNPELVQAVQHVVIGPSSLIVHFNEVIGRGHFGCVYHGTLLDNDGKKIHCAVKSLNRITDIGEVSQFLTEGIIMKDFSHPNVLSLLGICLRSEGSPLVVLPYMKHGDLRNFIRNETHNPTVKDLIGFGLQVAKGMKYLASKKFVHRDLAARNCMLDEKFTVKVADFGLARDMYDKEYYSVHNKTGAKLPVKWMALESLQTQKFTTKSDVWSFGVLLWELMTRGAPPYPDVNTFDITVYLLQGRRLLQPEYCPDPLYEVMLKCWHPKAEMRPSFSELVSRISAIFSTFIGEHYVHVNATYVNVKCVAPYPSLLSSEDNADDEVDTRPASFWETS

GSK-3β, (AA 1-420), sequence (P49841 whole entry, the tested form may be a part): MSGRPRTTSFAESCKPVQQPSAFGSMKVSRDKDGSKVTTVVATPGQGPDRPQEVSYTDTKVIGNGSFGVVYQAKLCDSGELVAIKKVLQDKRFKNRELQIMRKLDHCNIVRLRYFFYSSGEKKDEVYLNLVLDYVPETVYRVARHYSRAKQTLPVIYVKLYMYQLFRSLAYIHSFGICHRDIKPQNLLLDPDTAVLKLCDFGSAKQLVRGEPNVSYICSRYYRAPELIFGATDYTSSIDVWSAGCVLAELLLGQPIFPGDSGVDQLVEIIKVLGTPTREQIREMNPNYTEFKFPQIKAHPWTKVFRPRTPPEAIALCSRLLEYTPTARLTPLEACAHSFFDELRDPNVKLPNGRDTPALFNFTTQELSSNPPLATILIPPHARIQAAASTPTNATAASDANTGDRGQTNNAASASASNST
KDR, sequence (P35968 20-1356): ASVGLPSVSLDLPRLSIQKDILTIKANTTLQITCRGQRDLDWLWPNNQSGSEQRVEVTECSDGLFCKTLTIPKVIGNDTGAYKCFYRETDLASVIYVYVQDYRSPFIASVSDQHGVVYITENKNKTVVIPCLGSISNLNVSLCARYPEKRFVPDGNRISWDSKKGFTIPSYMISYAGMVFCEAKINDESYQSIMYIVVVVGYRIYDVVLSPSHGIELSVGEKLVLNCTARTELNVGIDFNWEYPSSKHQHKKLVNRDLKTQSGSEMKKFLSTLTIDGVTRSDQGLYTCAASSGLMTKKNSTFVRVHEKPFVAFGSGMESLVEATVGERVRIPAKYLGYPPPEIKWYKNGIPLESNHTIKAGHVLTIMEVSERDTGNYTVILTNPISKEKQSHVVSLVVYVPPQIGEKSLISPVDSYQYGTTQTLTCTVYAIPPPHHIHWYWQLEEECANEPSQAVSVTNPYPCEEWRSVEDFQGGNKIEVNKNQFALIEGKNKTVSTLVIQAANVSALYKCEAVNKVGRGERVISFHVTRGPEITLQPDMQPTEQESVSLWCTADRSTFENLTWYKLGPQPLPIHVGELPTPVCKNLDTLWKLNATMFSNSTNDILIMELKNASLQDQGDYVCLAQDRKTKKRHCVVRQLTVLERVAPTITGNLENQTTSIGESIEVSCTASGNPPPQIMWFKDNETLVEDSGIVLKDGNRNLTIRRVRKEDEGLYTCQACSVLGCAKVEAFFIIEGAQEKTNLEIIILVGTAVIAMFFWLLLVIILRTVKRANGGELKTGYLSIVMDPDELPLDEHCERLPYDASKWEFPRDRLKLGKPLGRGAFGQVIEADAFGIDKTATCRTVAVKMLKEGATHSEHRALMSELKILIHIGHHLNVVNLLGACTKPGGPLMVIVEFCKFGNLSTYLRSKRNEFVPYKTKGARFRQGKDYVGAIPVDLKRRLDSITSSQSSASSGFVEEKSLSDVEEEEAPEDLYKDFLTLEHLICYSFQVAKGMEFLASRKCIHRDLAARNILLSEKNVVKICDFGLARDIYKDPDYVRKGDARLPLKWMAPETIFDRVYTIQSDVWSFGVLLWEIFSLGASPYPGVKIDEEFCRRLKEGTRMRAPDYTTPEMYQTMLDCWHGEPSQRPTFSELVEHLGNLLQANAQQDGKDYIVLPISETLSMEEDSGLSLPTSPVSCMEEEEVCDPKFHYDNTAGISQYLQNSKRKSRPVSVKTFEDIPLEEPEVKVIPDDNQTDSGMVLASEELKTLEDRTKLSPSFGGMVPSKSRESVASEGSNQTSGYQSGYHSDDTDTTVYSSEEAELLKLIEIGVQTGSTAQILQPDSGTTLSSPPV

As for `Cc1cnc2[nH]cc(-c3oncc3-c3cccc(F)c3F)c2c1` [Compound 46, 3-[4-(2,3-Difluoro-phenyl)-isoxazol-5-yl]-5-methyl-1H-pyrrolo[2,3-b]pyridine], the Ki on GSK-3β, (AA 1-420) was 1000 to 12500 nM; on KDR it was 200 to 1000 nM; on c-Met, below 200 nM.

Regarding `Fc1cccc(-n2cnnc2-c2c[nH]c3ncc(-c4ccc(N5CCNCC5)nc4)cc23)c1F` [Compound 111, 3-[4-(2,3-Difluoro-phenyl)-4H-[1,2,4]triazol-3-yl]-5-(6-piperazin-1-yl-pyridin-3-yl)-1H-pyrrolo[2,3-b]pyridine], the Ki is 1000 to 12500 nM at GSK-3β, (AA 1-420); 1000 to 12500 nM at KDR; 200 to 1000 nM at c-Met.

Regarding `Fc1cccc(-c2cnoc2-c2c[nH]c3ccc(-c4ccncc4)cc23)c1F` [Compound 34, 3-[4-(2,3-Difluoro-phenyl)-isoxazol-5-yl]-5-pyridin-4-yl-1H-indole], the Ki on GSK-3β, (AA 1-420) was 1000 to 12500 nM.

Consider `OB(O)c1cnc2[nH]cc(-c3oncc3-c3cccc(F)c3F)c2c1` [Compound 154], for which the Ki at GSK-3β, (AA 1-420) was 1000 to 12500 nM; at KDR, below 200 nM; at c-Met, below 200 nM.

On to `CN(C)C1CCC(c2cnc3[nH]cc(-c4oncc4-c4cccc(F)c4F)c3c2)CC1` (stereo not shown) [Compound 141, (4-{3-[4-(2,3-Difluoro-phenyl)-isoxazol-5-yl]-1H-pyrrolo[2,3-b]pyridin-5-yl}-cyclohexyl)-dimethylamine], for which the Ki on GSK-3β, (AA 1-420) was below 200 nM; on KDR, 1000 to 12500 nM; on c-Met, below 200 nM.

Consider `Fc1cccc(-c2cnoc2-c2c[nH]c3nc(Cl)c(-c4ccncc4)cc23)c1F` [Compound 103, 6-Chloro-3-[4-(2,3-difluoro-phenyl)-isoxazol-5-yl]-5-pyridin-4-yl-1H-pyrrolo[2,3-b]pyridine], for which the Ki is 1000 to 12500 nM at GSK-3β, (AA 1-420) and 200 to 1000 nM at c-Met.

With `Fc1cnc2[nH]cc(-c3oncc3-c3cccc(F)c3F)c2c1` [Compound 45, 3-[4-(2,3-Difluoro-phenyl)-isoxazol-5-yl]-5-fluoro-1H-pyrrolo[2,3-b]pyridine], the Ki at GSK-3β, (AA 1-420) lay in the range of 1000 to 12500 nM; at KDR it was 200 to 1000 nM; at c-Met, 200 to 1000 nM.

Consider `OCc1cnc2[nH]cc(-c3oncc3-c3cccc(F)c3F)c2c1` [Compound 55, {3-[4-(2,3-Difluoro-phenyl)-isoxazol-5-yl]-1H-pyrrolo[2,3-b]pyridin-5-yl}-methanol], for which the Ki at GSK-3β, (AA 1-420) is 1000 to 12500 nM; on KDR, 200 to 1000 nM; at c-Met it was 200 to 1000 nM.

Consider `Fc1cccc(-c2cnoc2-c2n[nH]c3ncccc23)c1F` [Compound 31, 3-(4-(2,3-difluorophenyl)isoxazol-5-yl)-1H-pyrazolo[3,4-b]pyridine], for which the Ki at KDR lay within 1000 to 12500 nM; at c-Met it was 200 to 1000 nM.

As for `Fc1ccc(F)c(-c2cnoc2-c2c[nH]c3ncccc23)c1F` [Compound 41, 3-[4-(2,3,6-Trifluoro-phenyl)-isoxazol-5-yl]-1H-pyrrolo [2,3-b]pyridine], the Ki at GSK-3β, (AA 1-420) lay within 1000 to 12500 nM; at KDR, 1000 to 12500 nM; at c-Met, 200 to 1000 nM.

With `NC(=O)c1ccc(-c2cnc3[nH]cc(-c4oncc4-c4cccc(F)c4F)c3c2)cc1` [Compound 153], the Ki on GSK-3β, (AA 1-420) is 1000 to 12500 nM; at KDR, 200 to 1000 nM; on c-Met it was below 200 nM.

Regarding `O=C(c1cnc2[nH]cc(-c3oncc3-c3cccc(F)c3F)c2c1)N1CCCC1` [Compound 104, {3-[4-(2,3-Difluoro-phenyl)-isoxazol-5-yl]-1H-pyrrolo[2,3-b]pyridin-5-yl}-pyrrolidin-1-yl-methanone], the Ki on GSK-3β, (AA 1-420) lay within 1000 to 12500 nM; on KDR it was 200 to 1000 nM; at c-Met, 200 to 1000 nM.

As to `Fc1cccc(-c2cnoc2-c2c[nH]c3ncc(CCn4cncn4)cc23)c1F` [Compound 132, 3-[4-(2,3-Difluoro-phenyl)-isoxazol-5-yl]-5-(2-[1,2,4]triazol-1-yl-ethyl)-1H-pyrrolo[2,3-b]pyridine], the Ki at GSK-3β, (AA 1-420) was in the range of 200 to 1000 nM; at KDR, 1000 to 12500 nM; at c-Met, 200 to 1000 nM.

On to `Fc1cc(F)c(F)c(-c2cnoc2-c2c[nH]c3ncccc23)c1` [Compound 39, 3-[4-(2,3,5-Trifluoro-phenyl)-isoxazol-5-yl]-1H-pyrrolo [2,3-b]pyridine], for which the Ki on GSK-3β, (AA 1-420) lay in the range of 1000 to 12500 nM; on KDR it was 1000 to 12500 nM; at c-Met it was 200 to 1000 nM.

For `Fc1cccc(-c2cnoc2-c2c[nH]c3ncc(Cl)cc23)c1F` [Compound 44, 3-[4-(2,3-Difluoro-phenyl)-isoxazol-5-yl]-5-chloro-1H-pyrrolo[2,3-b]pyridine], the Ki is 200 to 1000 nM at GSK-3β, (AA 1-420); 200 to 1000 nM at KDR; below 200 nM at c-Met.

As to `COc1cnc2[nH]cc(-c3nncn3-c3cccc(F)c3F)c2c1` [Compound 108, 3-[4-(2,3-Difluoro-phenyl)-4H-[1,2,4]triazol-3-yl]-5-methoxy-1H-pyrrolo[2,3-b]pyridine], the Ki at GSK-3β, (AA 1-420) lay in the range of 1000 to 12500 nM; on c-Met, 200 to 1000 nM.

Consider `c1ccc(-c2cnoc2-c2c[nH]c3ncccc23)cc1` [Compound 35, 3-[4-Phenyl-isoxazol-5-yl]-1H-pyrrolo[2,3-b]pyridine], for which the Ki at GSK-3β, (AA 1-420) lay in the range of 1000 to 12500 nM; at KDR, 200 to 1000 nM; at c-Met, 200 to 1000 nM.

`C[N+]1(C)CCN(c2ccc(-c3cnc4[nH]cc(-c5oncc5-c5cccc(F)c5F)c4c3)cc2)CC1` [Compound 155]: the Ki at GSK-3β, (AA 1-420) was below 200 nM; at KDR, below 200 nM; at c-Met, below 200 nM.

As for `CN1CCN(C(=O)[C@H]2C[C@@H]2c2cnc3[nH]cc(-c4oncc4-c4cccc(F)c4F)c3c2)CC1` (relative stereo) [Compound 142, trans-(2-{3-[4-(2,3-Difluoro-phenyl)-isoxazol-5-yl]-1H-pyrrolo[2,3-b]pyridin-5-yl}-cyclopropyl)-(4-methyl-piperazin-1-yl)-methanone], the Ki at GSK-3β, (AA 1-420) was 200 to 1000 nM; on KDR, 200 to 1000 nM; at c-Met, below 200 nM.
